Results as given in US11141428B2, “Octasaccharides and uses thereof” (Academia Sinica, priority 2017, dated 2021).
Entries after “also recorded” stand apart in the source; their conditions may differ.

Columns and labels:
RPTPσ = experiment: Activation / phosphorylation of RPTPσ by sulfated octasaccharides (Western blot, densitometric analysis, FIG. 1a); format: cell-based; settings: 10 μg/mL, 15 min; FIG. 1 panel a
Protocol: SDS-PAGE and Western blotting. Cells were lysed with Tris-buffered saline (TBS), 1% Triton-X, Complete Mini Protease Inhibitor Cocktail (Roche) and Phostop Phosphatase Inhibitor Cocktail (Roche). Lysates were incubated on ice for 10 min and centrifuged at 20000 g for 10 min at 4° C. Supernatants were mixed with 4×SDS sample buffer and boiled for 5 min.
All samples were run on 5-20% gradient gel (Wako) and transferred to nitrocellulose membranes (GE Healthcare). After blocking with 5% non-fat dry milk or BSA, the membranes were blotted with primary antibodies. Primary antibodies used in this work included anti-EGFR pY1174 (Invitrogen, 44794G), anti-HA (Roche, clone 3F10), 4G10 Platinum (Millipore, 05-1050) and anti-β-actin (Sigma Aldrich, clone AC-15). All primary antibodies were used at 1:1000 dilution. All secondary antibodies conjugated with horseradish peroxidase were from Jackson ImmunoResearch and used at 1:3000 dilution. Membranes were developed with Novex ECL (Invitrogen) or ECL Plus Substrate (Pierce).

adult DRG neurons = experiment: Rescue of dystrophic endballs and axonal growth of adult DRG neurons across an aggrecan gradient (FIG. 1b, c); format: cell-based, mice; settings: for promotion of axonal growth / penetration across an aggrecan gradient / rescue / prevention of dystrophic endball formation: 20 μg/mL, adult DRG neurons on aggrecan gradient, FIG. 1 panel b; for axons invading the aggrecan rim that could pass the rim of aggrecan gradient: FIG. 1 panel c, left, comparable to chondroitinase ABC (C-ABC) digestion of chondroitin sulfate
Protocol: Preparation of an aggrecan gradient spot on coverslip. Glass coverslips were coated with 100 μg/mL PLL overnight at room temperature, rinsed with sterile water and dried completely. Onto the coverslip, 2 μL of an aggrecan (0.4 mg/mL) and laminin (10 μg/mL) mixture in Ca^2+- and Mg^2+-free Hank's balanced salt solution (HBSS) (Invitrogen) was spotted and dried. Then, the coverslip was bathed in laminin ([…]) solution in HBSS until just before (i.e., at least 3 h before) cell plating at 37° C. The laminin solution was subsequently removed, and the cells were plated without allowing the surface of the coverslip to dry.
DRG neuron primary culture. DRGs were dissected out of C57BL/6J (SLC) adult (12-16 weeks) female mice. The roots of isolated DRGs were trimmed in cold HBSS, collected in a centrifuge tube and spun down for 1 min at low speed (500 rpm). Then, the HBSS was removed. The tissues were incubated in collagenase-II (4 mg/mL)/dispase-II (4.67 mg/mL) in HBSS for 15 min at 37° C. After spinning down at low speed, the tissues were rinsed once with pre-warmed culture media consisting of Neurobasal-A (Gibco) with Gluta-MAX (Gibco), Anti-Anti (Gibco) and B-27 (Invitrogen), then spun down and triturated in fresh media. To refine neurons, the cell suspension was carefully overlaid onto 15% bovine serum albumin (BSA) in HBSS and spun down for 5 min at high speed (1000 rpm), and the supernatant was gently removed. The DRG cells were rinsed once and suspended in the media. The DRG cells were plated onto coverslips in the media.
Immunostaining. DRG neurons were fixed in ice-cold methanol for 15 min at −30° C. The fixed samples were then rinsed three times with phosphate buffered saline (PBS) and incubated in a blocking solution containing 5% (v/v) goat serum (Vector) and 0.2% (v/v) Triton-X 100 (Sigma) for 90 min at room temperature. For neuron-specific class III β-tubulin (Tuj1) staining, samples were bathed in 1:1000 mouse monoclonal Tuj1 (Covance, 801201) diluted in PBS containing 2.5% (v/v) normal goat serum overnight at 4° C. After three washes with PBS, neurons were incubated with 1:250 Alexa488-conjugated goat anti-mouse IgG (Molecular Probes, A11001) dissolved in PBS containing 2.5% (v/v) goat serum for 2 h at room temperature.

Molecule: NCCCCCO[C@@H]1O[C@H](C(=O)O)[C@@H](O[C@H]2O[C@H](CO)[C@@H](O[C@@H]3O[C@@H](C(=O)O)[C@@H](O[C@H]4O[C@H](CO)[C@@H](O[C@@H]5O[C@H](C(=O)O)[C@@H](O[C@H]6O[C@H](CO)[C@@H](O[C@@H]7O[C@@H](C(=O)O)[C@@H](O[C@H]8O[C@H](CO)[C@@H](O)[C@H](O)[C@H]8NS(=O)(=O)O)[C@H](O)[C@H]7OS(=O)(=O)O)[C@H](O)[C@H]6NS(=O)(=O)O)[C@H](O)[C@H]5OS(=O)(=O)O)[C@H](O)[C@H]4NS(=O)(=O)O)[C@H](O)[C@H]3OS(=O)(=O)O)[C@H](O)[C@H]2NS(=O)(=O)O)[C@H](O)[C@H]1OS(=O)(=O)O [HS14]
- activation of RPTPσ (inducing phosphorylation of RPTPσ) (RPTPσ): capable of inducing phosphorylation of RPTPσ; also recorded: activated RPTPσ
- promotion of axonal growth / penetration across an aggrecan gradient (adult DRG neurons): promoted axonal growth
- rescue / prevention of dystrophic endball formation (adult DRG neurons): rescued dystrophic endball formation
- promotion of axonal growth / penetration across an aggrecan gradient (adult DRG neurons; listed as HS 14): facilitated their penetration across the gradient
- rescue / prevention of dystrophic endball formation (adult DRG neurons; listed as HS 14): prevent formation of dystrophic endballs
- axons invading the aggrecan rim that could pass the rim of aggrecan gradient (adult DRG neurons): Nearly half

Molecule: 5-Aminopentyl (2-deoxy-2-sulfamido-6-O-sulfonato-α-D-glucopyranosyl)-(1→4)-α-L-idopyranosiduronyl-(1→4)-(2-deoxy-2-sulfamido-6-O-sulfonato-α-D-glucopyranosyl)-(1→4)-β-D-glucopyranosiduronyl-(1→4)-(2-deoxy-2-sulfamido-6-O-sulfonato-α-D-glucopyranosyl)-(1→4)-α-L-idopyranosiduronyl-(1→4)-(2-deoxy-2-sulfamido-6-O-sulfonato-α-D-glucopyranosyl)-(1→4)-β-D-glucopyranosiduronate [HS16]
- promotion of axonal growth / penetration across an aggrecan gradient (adult DRG neurons): facilitated their penetration across the gradient
- rescue / prevention of dystrophic endball formation (adult DRG neurons): prevent formation of dystrophic endballs
- axons invading the aggrecan rim that could pass the rim of aggrecan gradient (adult DRG neurons): Nearly half

Molecule: 5-Aminopentyl (2-deoxy-2-sulfamido-α-D-glucopyranosyl)-(1→4)-α-L-idopyranosiduronyl-(1→4)-(2-deoxy-2-sulfamido-α-D-glucopyranosyl)-(1→4)-β-D-glucopyranosiduronyl-(1→4)-(2-deoxy-2-sulfamido-α-D-glucopyranosyl)-(1→4)-α-L-idopyranosiduronyl-(1→4)-(2-de oxy-2-sulfamido-α-D-glucopyranosyl)-(1→4)-β-D-glucopyranosiduronate [HS10]
- activation of RPTPσ (inducing phosphorylation of RPTPσ) (RPTPσ): capable of inducing phosphorylation of RPTPσ
